Values of other authors, collected in patent US11110113B2, “Compositions and methods for treating depression” (Gentelon, Inc., priority 2016, dated 2021).

Columns and labels:
[1] = system: Major Depressive Disorder; settings: trial versus placebo
cerebral tissue = settings: six months, versus placebo; schizophrenia and Huntington's disease
[2] = system: Major Depressive Disorder; settings: double-blind studies; intravenous or intramuscular (parenteral)
[3] = oral SAMe

## CC/C=C\C/C=C\C/C=C\C/C=C\C/C=C\CCCC(=O)OCC [E-EPA]
[1]
  efficacy in major depressive disorder / mood-disordered population: advantage over placebo
Cerebral tissue
  grey and white matter: significant increase

## C[S+](CC[C@H](N)C(=O)[O-])C[C@H]1O[C@@H](n2cnc3c(N)ncnc32)[C@H](O)[C@@H]1O (stereo partly shown) [SAMe, S-Adenosyl methionine]
[2]
  efficacy in treatment of Major Depressive Disorder: effective
[3]
  half-life: about 100 minutes

## CC/C=C\C/C=C\C/C=C\C/C=C\C/C=C\C/C=C\CCC(=O)O [DHA, all-cis-4,7,10,13,16,19-docosahexaenoic acid]
[1]
  efficacy in major depressive disorder / mood-disordered population: negative result

## Nc1nc2c(c(=O)[nH]1)N(C=O)C(CNc1ccc(C(=O)N[C@@H](CCC(=O)O)C(=O)O)cc1)CN2 (stereo partly shown) [folinic acid]
depression; patients inadequately responsive to monotherapy with a serotonin reuptake inhibitor
  depression scores: significant reduction

## Nc1nc2ncc(CNc3ccc(C(=O)N[C@@H](CCC(=O)O)C(=O)O)cc3)nc2c(=O)[nH]1 [folic acid]
depression; longer term supplementation, patients with unipolar and bipolar depression
  depression symptomatology: statistically significant improvements
